# Assays:
# [1] = system: 24 JK murine sarcoma cells; assay: Syngeneic tumor model, 24 JK murine sarcoma in C57BL/6 mice; parameters: anti-tumor effectiveness: dose or concentration left out as unconfirmed
# Description: In the case where a hexosaminidase is tested for anti-tumor activity on murine tumor cells or tissues, a syngeneic tumor model is used. In this model, tumor cells or tissues are implanted in C57BL/6 mice. As in the SCID mouse model described above, the implanted tumors are allowed to grow to a size of approximately 50 to 100 mm^3 before various amounts of the hexosaminidase are administered to the animal, by any of the means described above. The decrease in tumor size or, preferably, elimination of the tumor from the mouse, is subsequently observed.
# In both the SCID and C57BL/6 models described above, the anti-tumor activity of a hexosaminidase is compared to the anti-tumor activity of a known anti-tumor agent. For example, mice containing tumors are treated with doxorubicin. A suitable dose of doxorubicin is 5 mg per kg of body weight of the mice.
# A syngeneic tumor model, C57BL/6 mice carrying implanted 24 JK murine sarcoma cells, was used in these studies. The cells were injected subcutaneously into the mouse flank. Five days later, 5 units of chitinase was injected intraperitoneally (IP) into the mouse. Into another mouse was injected 5 mg doxorubicin per kilogram of mouse weight IP on days 5, 7 and 9. Into a third mouse was injected saline on day 5 (i.e., negative control).
# [2] = system: prostate cancer LNCaP cells; assay: Cultured tumor cells treated with chitinase, cellular damage; type: cell-based, human; details: within hours of treatment, ultimately leading to cell death
# [3] = system: Merkel cell cancer (neuroendocrine skin cancer); assay: Merkel cell cancer xenograft in SCID mice, tumor size; type: in vivo, human; details: 5 units injected into the tumor (day 1)
# Description: (§1) The effect of hexosaminidases on survival of tumor cells is also tested by administering hexosaminidases to experimental animals that have various tumors. Preferably, the tumors are human tumors or cancer xenograft tissues and the experimental animal is a SCID mouse. Good results have been obtained by transplanting tumor cells or tissues subcutaneously in the animal or behind the fat pad of the mouse. After the tumor cells or tissues are transplanted into the animal, the tumors cells grow and divide. When the tumors reach a visible size (e.g., 0.5-0.8 cm^3) in the SCID mice, a hexosaminidase is dissolved in PBS and various amounts of the hexosaminidase are injected into the tumor (i.e., intratumor injection), injected intraperitoneally (IP) into the animal, or intravenously (IV) into the animal. Single or multiple injections are used. The size of the tumor is subsequently measured to determine the effect of the enzyme on tumor growth and survival. A decrease in size of the tumors is indicative of anti-tumor activity of the hexosaminidase. Preferably, administration of the hexosaminidase results in a significant size reduction of the tumor. […]
# Merkel cell cancer (neuroendocrine skin cancer) was obtained from patients as a biopsy sample and a 0.1 cm^3 piece of the biopsy was implanted into SCID mice. […] Subsequently, the size of the tumors was measured daily.
# [4] = Chitinase levels in blood of mice after different routes of administration (4-mu-chitotrioside assay of plasma); type: in vivo; details: mouse
# Description: Thirty-five mg of chitinase (Sigma C-6139) was dissolved in 1.5 ml of PBS. One-half ml of the chitinase solution was injected into each of 3 mice. One mouse was injected intraperitoneally (IP), one was injected intravenously (IV), and one mouse was injected subcutaneously (SC). A fourth mouse was injected with saline as a control. At various times after injection, 15-20 μl of blood was taken from the tail vein of each mouse and immediately mixed with a sodium-EDTA solution (pH 7.4). The cells were centrifuged from the blood and 5 μl of plasma was used in a chitinase assay. In the chitinase assay, 4-methylumbelliferyl-β-D-N, N′, N″-triacetyl-chitotriose (4-mu-chitotrioside) was used as the substrate for chitinase. The plasma sample, in 100 μl of saline, was mixed with 100 μl of 22 μM 4-mu-chitotrioside solution in 0.2 M citric acid buffer (pH 5.2) and incubated in a 37° C. water bath for 15 min. At the end of the incubation, 3.0 ml of 0.3 M glycine buffer (pH 10.6) was added to the mixture to stop the reaction. The fluorescence of the solution at 460 nm was then measured after excitation at 355 nm.
# [5] = Observation of treated mice for visible signs of systemic toxicity; type: in vivo; details: general statement; high chitinase levels do not appear to cause toxicity in normal tissues
# Source text: Such toxicity is compared with toxicity that is present in control animals, animals administered doxorubicin for example.
# fibrosarcoma = assay: Human fibrosarcoma xenograft in SCID mice, tumor size; type: in vivo; details: 5 units injected into the tumor (day 1)
# Description: as §1
# A fibrosarcoma was obtained from patients as a biopsy sample and a 0.1 cm^3 piece of the biopsy was implanted into SCID mice. […] Subsequently, the size of the tumors was measured daily.
# Malignant melanoma = assay: Human malignant melanoma xenograft in SCID mice, tumor size; type: in vivo; details: 5 units injected into the tumor (day 1)
# Description: as §1
# Malignant melanoma was obtained from patients as a biopsy sample and a 0.1 cm^3 piece of the biopsy was implanted into SCID mice. […] Subsequently, the size of the tumors was measured daily.
# [6] = system: LNCaP prostate cancer cells; assay: LNCaP prostate cancer cell tumors in SCID mice; type: in vivo, human
# Description: The effect of hexosaminidases on survival of tumor cells is also tested by administering hexosaminidases to experimental animals that have various tumors. Preferably, the tumors are human tumors or cancer xenograft tissues and the experimental animal is a SCID mouse. Good results have been obtained by transplanting tumor cells or tissues subcutaneously in the animal or behind the fat pad of the mouse. After the tumor cells or tissues are transplanted into the animal, the tumors cells grow and divide. When the tumors reach a visible size (e.g., 0.5-0.8 cm^3) in the SCID mice, a hexosaminidase is dissolved in PBS and various amounts of the hexosaminidase are injected into the tumor (i.e., intratumor injection), injected intraperitoneally (IP) into the animal, or intravenously (IV) into the animal. Single or multiple injections are used. The size of the tumor is subsequently measured to determine the effect of the enzyme on tumor growth and survival. A decrease in size of the tumors is indicative of anti-tumor activity of the hexosaminidase. Preferably, administration of the hexosaminidase results in a significant size reduction of the tumor. More preferably, the hexosaminidase eliminates the tumor from the SCID mouse. Preferably, such animals will remain free from tumors in the future.
# One million LNCaP prostate cancer cells were injected into SCID mice. After the tumors grew to a size of between 0.3-0.6 cm^3, 5 units of Streptomyces chitinase was injected intratumorally, intraperitoneally and intravenously, in separate mice. […] All untreated animals died within 3 months.
# lung cancer cells = assay: Cultured tumor cells treated with chitinase, cellular damage (electron micrographs); type: cell-based, human; details: within hours of treatment, ultimately leading to cell death
# melanoma cells = assay: as above; type: cell-based, human; details: within hours of treatment, ultimately leading to cell death
# [7] = system: breast cancer MCF-7 cells; assay: as above; type: cell-based, human; details: within hours of treatment, ultimately leading to cell death
# [8] = system: human oral carcinoma KB cells; details: 3 days culture at 37° C., MTT, FIG. 1
# Description: Good results have been obtained by testing the effect of hexosaminidases on the viability of cultured normal and tumor cells is tested by culturing normal cells (e.g., spleen cells from a mouse) and tumor cells (e.g., human oral carcinoma KB cells) in vitro and then adding various concentrations of the hexosaminidase to the cells. Different concentrations of the hexosaminidases are used. At various times after addition of the hexosaminidase, the viability of the cells is determined using one of a variety of methods. One method is the MTT assay. In this assay, cells are exposed to MTT, 3-(4,5-dimethylthiazol-2-yl)2,5-diphenyltetrazolium bromide, which is taken into the cells and reduced by mitochondrial dehydrogenase to a purple formazan, a large molecule which is unable to pass through intact cell membranes, and therefore accumulates in healthy cells. The ability of cells to reduce MTT is an indication of mitochondrial integrity and activity, which is interpreted as a measure of viability.
# Fifty thousand spleen cells from a normal mouse, or human oral carcinoma KB cells were cultured. […] This product was dissolved in a solvent (95% ethanol:DMSO; 1:1), added to the cells and the absorbance (540 nm) was determined. The absorbance of the formazan is linearly proportional to the number of viable cells in the culture.
# [9] = system: Ductal carcinoma from breast; assay: Human breast cancer xenograft in SCID mice, tumor size; type: in vivo; details: 5 units injected into the tumor (day 1)
# Description: as §1
# Ductal carcinoma from breast was obtained from patients as a biopsy sample and a 0.1 cm^3 piece of the biopsy was implanted into SCID mice. […] Subsequently, the size of the tumors was measured daily.
# [10] = system: Moderately differentiated squamous cell carcinoma from human lung; assay: Human lung cancer xenograft in SCID mice, tumor size; type: in vivo
# Description: as §1
# Moderately differentiated squamous cell carcinoma from human lung was obtained from patients as a biopsy sample and a 0.1 cm^3 piece of the biopsy was implanted into SCID mice. […] Subsequently, the size of the tumors was measured daily. […]
# Large cell lymphoma = assay: Human lymphoma xenograft in SCID mice, tumor size; type: in vivo; details: 5 units injected into the tumor (day 1), over a period of 7 days, FIG. 2
# Description: as §1
# Large cell lymphoma was obtained from patients as a biopsy sample and a 0.1 cm^3 piece of the biopsy was implanted into SCID mice. […] Subsequently, the size of the tumors was measured daily.
# [11] = system: Adenocarcinoma from ovaries; assay: Human ovarian cancer xenograft in SCID mice, tumor size; type: in vivo; details: 5 units injected into the tumor (day 1)
# Description: as §1
# Adenocarcinoma from ovaries was obtained from patients as a biopsy sample and a 0.1 cm^3 piece of the biopsy was implanted into SCID mice. […] Subsequently, the size of the tumors was measured daily.
# [12] = system: Poorly differentiated carcinoma from human bladder; assay: Human bladder cancer xenograft in SCID mice, tumor size; type: in vivo; details: 5 units injected into the tumor (day 1)
# Description: as §1
# Poorly differentiated carcinoma from human bladder was obtained from patients as a biopsy sample and a 0.1 cm^3 piece of the biopsy was implanted into SCID mice. […] Subsequently, the size of the tumors was measured daily.
# [13] = system: Moderately differentiated adenocarcinoma from prostate; assay: Human prostate cancer xenograft in SCID mice, tumor size; type: in vivo; details: 5 units injected into the tumor (day 1), FIG. 2
# Description: as §1
# Moderately differentiated adenocarcinoma from prostate was obtained from patients as a biopsy sample and a 0.1 cm^3 piece of the biopsy was implanted into SCID mice. […] Subsequently, the size of the tumors was measured daily.
# [14] = system: spleen cells from a normal mouse; assay: MTT dye reduction viability assay, normal cells; type: cell-based; details: concentrations up to 1.0 units per ml of culture medium, 3 days, FIG. 1
# Source text: Different concentrations of the hexosaminidases are used. […] One method is the MTT assay.
# [15] = system: Moderately differentiated adenocarcinoma from human colon; assay: Human colon cancer xenograft in SCID mice, tumor size; type: in vivo; details: 5 units injected into the tumor (day 1), FIG. 2
# Description: as §1
# Moderately differentiated adenocarcinoma from human colon was obtained from patients as a biopsy sample and a 0.1 cm^3 piece of the biopsy was implanted into SCID mice. […] Subsequently, the size of the tumors was measured daily.
# [16] = 5 units intratumorally, intraperitoneally and intravenously, in separate mice
molecule,measurement,setting,value
"COc1cccc2c1C(=O)c1c(O)c3c(c(O)c1C2=O)C[C@@](O)(C(=O)CO)C[C@@H]3O[C@H]1C[C@H](N)[C@H](O)[C@H](C)O1 [doxorubicin, reference compound]",anti-tumor effectiveness,[1],generally ineffective
same,outcome of mice evaluated,"[1]; 5 mg per kilogram IP on days 5, 7 and 9",eventually died from drug toxicity or progressive tumor growth
same,course of tumor growth,[1]; 3 intraperitoneal injections of 5 mg/kg (maximum tolerated dose),growth attenuation followed by a resumption of progressive growth
chitinase,cellular damage after chitinase treatment,[2],significant cellular damage
same,elimination of Merkel cell tumors,[3],eliminated
same,maximum blood levels relative to those found in IV injection,[4]; IP injection,less than half
same,time at which maximum blood levels were reached,[4]; IP injection,2 to 3 min
same,time until which blood levels tapered off,[4]; IP injection,40 min
same,time until which maximum levels remained,[4]; IP injection,7 to 8 min
same,time at which little chitinase was left in the blood,[4]; IV injection,20 min
same,levels of chitinase in the blood immediately after injection,"[4]; IV injection, within 1 min.",very high levels
same,maximum blood levels relative to blood levels found after IP injection,[4]; SC injection,a third
same,time at which maximum blood levels were reached,[4]; SC injection,2 to 3 min
same,time until which blood levels tapered off,[4]; SC injection,40 min
same,systemic toxicity,[5],without significant systemic toxicity
same,elimination of fibrosarcomas compared with human colon cancer of Example 2,fibrosarcoma,as effectively eliminated
same,elimination of melanomas compared with human colon cancer of Example 2,Malignant melanoma,as effectively eliminated
same,histological staining of tumors compared to saline control tumors,[6]; [16],extensive cellular damage and morphological changes
same,time after injection at which tumor necrosis was visible,[6]; [16],within hours
same,tumor regression,[6]; [16],complete tumor regression
same,survival of treated animals without tumor recurrence,"[6]; 5 units, all untreated animals died within 3 months",more than one year
same,development of resistance of the tumors to the enzyme,[6]; additional studies,no indication of development of resistance
same,tumor elimination with an additional administration of chitinase after the first,[6]; additional studies,more rapidly eliminated
same,cellular damage after chitinase treatment,lung cancer cells,significant cellular damage
same,cellular damage after chitinase treatment,melanoma cells,significant cellular damage
same,cellular damage after chitinase treatment,[7],significant cellular damage
same,concentrations at which chitinase efficiently kills the tumor cells,[8],0.025 to 0.05 units of chitinase per ml of culture medium
same,elimination of breast tumors compared with human colon cancer of Example 2,[9],as effectively eliminated
same,elimination of lung tumors compared with human colon cancer of Example 2,"[10]; 5 units injected into the tumor (day 1), SCID mice",as effectively eliminated
same,tumor size after chitinase treatment,"[10]; 10 days after a single injection of 5 units, FIG. 3b",substantially reduced in size
same,change of lymphoma size,Large cell lymphoma,reduced in size
same,elimination of ovarian tumors compared with human colon cancer of Example 2,[11],as effectively eliminated
same,dose dependence of anti-tumor activity,"[1]; additional studies, increased with increasing dosages",dose dependent
same,regression of established tumors,[1]; intraperitoneal injection of 5 Units on day 5 and day 6,complete tumor regression
same,day until after which detectable growth of 24 JK sarcoma tumor cells was inhibited,"[1]; single IP injection of 5 units five days after cell injection, FIG. 5",> 12 days
same,regression of established tumors,[1]; single intraperitoneal injection of 10 Units on day 5,complete tumor regression
same,elimination of bladder tumors compared with human colon cancer of Example 2,[12],as effectively eliminated
same,period over which prostate tumors were eliminated from the mouse,[13],7 days
same,effect on the viability of the normal mouse spleen cells,[14],little effect
same,period over which human colon cancer was effectively eliminated from the animals,[15],2 days
